Test results published in PubChem BioAssay (NCI).
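Five compound concentrations were applied to cells in 96-well plates for 48 hours; endpoints were derived by simple linear interpolation of the resulting dose-response curve. TGI is the concentration that stops growth completely.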

Assays:
Assay in all cases: NCI anticancer screen, dose series, 48 h
786-0 renal = tested on: 786-0 renal
A498 renal = tested on: A498 renal
A549 NSCLC = tested on: A549 NSCLC
ACHN renal = tested on: ACHN renal
CAKI-1 renal = tested on: CAKI-1 renal
COLO 205 colon = tested on: COLO 205 colon
DLD-1 colon = tested on: DLD-1 colon
DMS 114 small cell lung = tested on: DMS 114 small cell lung
DMS 273 small cell lung = tested on: DMS 273 small cell lung
EKVX NSCLC = tested on: EKVX NSCLC
HCT-116 colon = tested on: HCT-116 colon
HCT-15 colon = tested on: HCT-15 colon
HL-60(TB) leukemia = tested on: HL-60(TB) leukemia
HOP-92 NSCLC = tested on: HOP-92 NSCLC
HT29 colon = tested on: HT29 colon
IGROV1 ovarian = tested on: IGROV1 ovarian
K-562 leukemia = tested on: K-562 leukemia
KM20L2 colon = tested on: KM20L2 colon
LOX IMVI melanoma = tested on: LOX IMVI melanoma
LXFL 529 NSCLC = tested on: LXFL 529 NSCLC
M14 melanoma = tested on: M14 melanoma
M19-MEL melanoma = tested on: M19-MEL melanoma
MALME-3M melanoma = tested on: MALME-3M melanoma
MOLT-4 leukemia = tested on: MOLT-4 leukemia
NCI-H226 lung = tested on: NCI-H226 lung
NCI-H23 lung = tested on: NCI-H23 lung
NCI-H460 lung = tested on: NCI-H460 lung
NCI-H522 lung = tested on: NCI-H522 lung
OVCAR-3 ovarian = tested on: OVCAR-3 ovarian
OVCAR-4 ovarian = tested on: OVCAR-4 ovarian
OVCAR-5 ovarian = tested on: OVCAR-5 ovarian
OVCAR-8 ovarian = tested on: OVCAR-8 ovarian
RPMI-8226 leukemia = tested on: RPMI-8226 leukemia
RXF 393 renal = tested on: RXF 393 renal
SF-268 CNS = tested on: SF-268 CNS
SF-295 CNS = tested on: SF-295 CNS
SF-539 CNS = tested on: SF-539 CNS
SK-MEL-2 melanoma = tested on: SK-MEL-2 melanoma
SK-MEL-28 melanoma = tested on: SK-MEL-28 melanoma
SK-MEL-5 melanoma = tested on: SK-MEL-5 melanoma
SK-OV-3 ovarian = tested on: SK-OV-3 ovarian
SN12C renal = tested on: SN12C renal
SNB-19 CNS = tested on: SNB-19 CNS
SNB-75 CNS = tested on: SNB-75 CNS
SNB-78 CNS = tested on: SNB-78 CNS
SW-620 colon = tested on: SW-620 colon
TK-10 renal = tested on: TK-10 renal
UACC-257 melanoma = tested on: UACC-257 melanoma
UACC-62 melanoma = tested on: UACC-62 melanoma
UO-31 renal = tested on: UO-31 renal
XF 498 CNS = tested on: XF 498 CNS

Measured: TGI

O=C(CC1(O)C(=O)Nc2ccccc21)c1ccc(F)cc1 (stereo unspecified)
> 100 µM: 786-0 renal | A498 renal | A549 NSCLC | ACHN renal | CAKI-1 renal | COLO 205 colon | DLD-1 colon | DMS 114 small cell lung | DMS 273 small cell lung | EKVX NSCLC | HCT-116 colon | HCT-15 colon | HL-60(TB) leukemia | HOP-92 NSCLC | HT29 colon | IGROV1 ovarian | K-562 leukemia | KM20L2 colon | LOX IMVI melanoma | LXFL 529 NSCLC | M14 melanoma | M19-MEL melanoma | MALME-3M melanoma | MOLT-4 leukemia | NCI-H226 lung | NCI-H23 lung | NCI-H460 lung | NCI-H522 lung | OVCAR-3 ovarian | OVCAR-4 ovarian | OVCAR-5 ovarian | OVCAR-8 ovarian | RPMI-8226 leukemia | RXF 393 renal | SF-268 CNS | SF-295 CNS | SF-539 CNS | SK-MEL-2 melanoma | SK-MEL-28 melanoma | SK-MEL-5 melanoma | SK-OV-3 ovarian | SN12C renal | SNB-19 CNS | SNB-75 CNS | SNB-78 CNS | SW-620 colon | TK-10 renal | UACC-257 melanoma | UACC-62 melanoma | UO-31 renal | XF 498 CNS
